# Assay results: patent US11390606B2, “Pyridazinone compounds and uses thereof” (Edgewise Therapeutics, Inc., priority 2018, dated 2022)
# Target: T1, skeletal myofibrils (Rabbit Psoas), myosin ATPase activity
# T1 construct: Rabbit Psoas Prep 11 (0.25 mg/mL)
# Experiment: Skeletal Myofibril ATPase Assay
# Type: biochemical
# Details: skeletal myofibrils (Rabbit Psoas 0.25 mg/mL), PK/LDH-coupled NADH absorbance at 340 nm
# Experimental: Overview: Myosin ATPase activity is assessed by using a coupled reaction system, in which ADP generated by the myosin ATPase function is coupled to the disappearance of NADH through the pyruvate kinase/lactate dehydrogenase (PK-LDH) system. Myosin ATPase activity produces ADP, which is used as a substrate for PK to produce pyruvate and regenerate ATP. The pyruvate is then used as a substrate by LDH to oxidize NADH to NAD+. The rate of the reaction is monitored through the time-dependent disappearance of NADH using absorbance at 340 nm. Inhibition of ATPase activity by the assayed compounds is indicated by a reduced rate of NADH loss, relative to vehicle-treated controls, over the experimental time window. To assess the selectivity of the assayed compounds for skeletal myofibrils, the compounds are counter-screened in cardiac myofibrils.
# Materials: The following stock solutions and reagents were used in the Skeletal Myofibril ATPase Assay:
# Stock Solutions of pCa buffer. Combine PIPES, CaCl2, and EGTA solutions with 70 mL of water. Adjust pH to 7.0 and bring final volume to 100 mL.
# Buffer A & Buffer B. Buffers were stored on ice until use.
# Skeletal Myofibril ATPase Assay Procedure: BSA, ATP, NADH, PEP, and DTT solutions were thawed at room temperature, then transferred to ice. Pellet-frozen myofibrils were transferred with approximately twice the required volume into a sufficiently large tube and capped. Myofibrils were thawed by rolling in a water bath for approximately 15 min at room temperature and cooled on ice. Buffers A and B were prepared by adjusting volumes as necessary for required number of wells and stored on ice. 0.5 μL of the compounds to be assayed were added into wells. 25 μL of Buffer A was dispensed into the wells, followed by 25 μL of Buffer B. The wells were measured for absorbance at 340 nm, using a kinetic protocol in which the wells are read every 1.5-2 min for 45 min. The slope of the data was approximated by subtracting the minimum absorbance value from the maximum value for each well. This was accomplished either in the SoftMax Pro software or in a spreadsheet program such as Excel. Using GraphPad Prism 8.0, the data was normalized by assigning a value of 100% to the 1% DMSO vehicle wells. Typically, a normalized 0% value was simply assigned to a (Max−Min) value of 0. The normalized data was fit to a Four Parameter Logistic sigmoidal equation, constraining the bottom to be 0 or greater. Compounds of Table 1 to 4 were tested and results of the assay appear in Table 5 herein. A=IC50 is less than or equal to 10 μM; B=IC50 is greater than 10 μM and less than 100 μM; C=IC50 is greater than 100 μM.
row,SMILES,IC50 [µM]
1,"O=c1ccc(-c2ccc(OC(F)F)nc2)nn1Cc1ccc(F)c(Cl)c1 [Compound 20, 2-(3-chloro-4-fluorobenzyl)-6-(6-(difluoromethoxy)pyridin-3-yl)pyridazin-3(2H)-one]",< 10
2,"COc1cc(F)ccc1-c1ccc(=O)n(Cc2ccc(Cl)cc2)n1 [Compound 316, 2-(4-chlorobenzyl)-6-(4-fluoro-2-methoxyphenyl)pyridazin-3(2H)-one]",> 100
3,"N#Cc1ccc(Cn2nc(-c3ccc(Br)cc3)ccc2=O)cc1 [Compound 238, 4-((3-(4-bromophenyl)-6-oxopyridazin-1(6H)-yl)methyl)benzonitrile]",10 to 100
4,"O=c1ccc(-c2ccc(Cl)cc2)nn1Cc1ccc(Cl)cc1 [Compound 303, 2-(4-chlorobenzyl)-6-(4-chlorophenyl)pyridazin-3(2H)-one]",< 10
5,"O=c1ccc(-c2ccc(Cl)cc2)nn1Cc1ccccc1F [Compound 309, 6-(4-chlorophenyl)-2-(2-fluorobenzyl)pyridazin-3(2H)-one]",< 10
6,"COc1ccc(-c2ccc(=O)n(Cc3ccccc3)n2)cc1 [Compound 211, 2-benzyl-6-(4-methoxyphenyl)pyridazin-3(2H)-one]",< 10
7,"C=Cc1ccc(Cn2nc(-c3ccc(OC)cc3F)ccc2=O)cc1 [Compound 202, 6-(2-fluoro-4-methoxyphenyl)-2-(4-vinylbenzyl)pyridazin-3(2H)-one]",> 100
8,"CN(CC(F)(F)F)c1ncc(-c2ccc(=O)n(Cc3ccc(F)cc3F)n2)cn1 [Compound 29, 2-(2,4-difluorobenzyl)-6-(2-(methyl(2,2,2-trifluoroethyl)amino)pyrimidin-5-yl)pyridazin-3(2H)-one]",< 10
9,"CCCOc1ccc(-c2ccc(=O)n(Cc3ccc(Cl)cc3)n2)cc1 [Compound 218, 2-(4-chlorobenzyl)-6-(4-propoxyphenyl)pyridazin-3(2H)-one]",< 10
10,"COc1ccc(Cn2nc(-c3ccc(Cl)cc3)ccc2=O)cc1 [Compound 235, 6-(4-chlorophenyl)-2-(4-methoxybenzyl)pyridazin-3(2H)-one]",< 10
11,"CC1(C)C(=O)Nc2ccc(-c3ccc(=O)n(Cc4ccc(Cl)cc4)n3)cc21 [Compound 121, 5-(1-(4-chlorobenzyl)-6-oxo-1,6-dihydropyridazin-3-yl)-3,3-dimethylindolin-2-one]",> 100
12,"CN1CCC(F)(COc2ccc(-c3ccc(=O)n(Cc4ccc(Cl)cc4)n3)cn2)CC1 [Compound 28, 2-(4-chlorobenzyl)-6-(6-((4-fluoro-1-methylpiperidin-4-yl)methoxy)pyridin-3-yl)pyridazin-3(2H)-one]",> 100
13,"O=c1ccc(-c2ccc(Cl)cc2)nn1Cc1ccccc1Cl [Compound 310, 2-(2-chlorobenzyl)-6-(4-chlorophenyl)pyridazin-3(2H)-one]",< 10
14,"O=c1ccc(-c2ccc(Cl)cc2)nn1Cc1cccc(Cl)c1 [Compound 307, 2-(3-chlorobenzyl)-6-(4-chlorophenyl)pyridazin-3(2H)-one]",< 10
15,"O=c1ccc(-c2ccc(F)cc2)nn1Cc1ccc(Cl)cc1 [Compound 300, 2-(4-chlorobenzyl)-6-(4-fluorophenyl)pyridazin-3(2H)-one]",< 10
16,"O=c1ccc(-c2ccc(OC(F)F)nc2)nn1[C@@H](CO)c1ccc(Cl)cc1 [Compound 53, (R)-2-(1-(4-chlorophenyl)-2-hydroxyethyl)-6-(6-(difluoromethoxy)pyridin-3-yl)pyridazin-3(2H)-one]",> 100
17,"O=c1ccc(-c2ccc(C3CC3)cc2)nn1Cc1ccc(Cl)cc1 [Compound 104, 2-(4-chlorobenzyl)-6-(4-cyclopropylphenyl)pyridazin-3(2H)-one]",< 10
18,"N#CCOc1ccc(-c2ccc(=O)n(Cc3ccc(Cl)cc3)n2)cc1 [Compound 108, 2-(4-(1-(4-chlorobenzyl)-6-oxo-1,6-dihydropyridazin-3-yl)phenoxy)acetonitrile]",< 10
19,"CNc1ccc(-c2ccc(=O)n(Cc3ccc(Cl)cc3)n2)cc1 [Compound 123, 2-(4-chlorobenzyl)-6-(4-(methylamino)phenyl)pyridazin-3(2H)-one]",< 10
20,"O=c1ccc(-c2ccc(OC(F)F)nc2)nn1Cc1ccc(Cl)cc1 [Compound 19, 2-(4-chlorobenzyl)-6-(6-(difluoromethoxy)pyridin-3-yl)pyridazin-3(2H)-one]",< 10
21,"Cc1ccc(-c2ccc(=O)n(Cc3ccc(F)cc3)n2)cc1 [Compound 236, 2-(4-fluorobenzyl)-6-(p-tolyl)pyridazin-3(2H)-one]",< 10
22,"CCCc1ccc(-c2ccc(=O)n(Cc3ccc(Cl)cc3)n2)cc1 [Compound 312, 2-(4-chlorobenzyl)-6-(4-propylphenyl)pyridazin-3(2H)-one]",< 10
23,"O=c1ccc(-c2ccc(OC(F)F)cc2)nn1Cc1ccc(Cl)cc1 [Compound 103, 2-(4-chlorobenzyl)-6-(4-(difluoromethoxy)phenyl)pyridazin-3(2H)-one]",< 10
24,"O=c1ccc(-c2ccc(Br)cc2)nn1Cc1ccccc1 [Compound 239, 2-benzyl-6-(4-bromophenyl)pyridazin-3(2H)-one]",< 10
25,"O=c1ccc(-c2ccc(F)cc2)nn1Cc1ccc(F)cc1 [Compound 244, 2-(4-fluorobenzyl)-6-(4-fluorophenyl)pyridazin-3(2H)-one]",10 to 100
26,"Cc1cccc(Cn2nc(-c3ccc(Cl)cc3)ccc2=O)c1 [Compound 314, 6-(4-chlorophenyl)-2-(3-methylbenzyl)pyridazin-3(2H)-one]",< 10

# Now from value to molecule:
row,IC50 [µM],SMILES
1,< 10,"O=c1ccc(-c2cnc(OCC(F)(F)F)nc2)nn1Cc1cccc(F)c1 [Compound 35, 2-(3-fluorobenzyl)-6-(2-(2,2,2-trifluoroethoxy)pyrimidin-5-yl)pyridazin-3(2H)-one]"
2,< 10,"O=c1ccc(-c2cnc(OCC(F)(F)F)nc2)nn1Cc1ccc(CO)cc1 [Compound 48, 2-(4-(hydroxymethyl)benzyl)-6-(2-(2,2,2-trifluoroethoxy)pyrimidin-5-yl)pyridazin-3(2H)-one]"
3,< 10,"O=c1ccc(-c2cnc(NCC(F)F)nc2)nn1Cc1ccc(Cl)cc1 [Compound 32, 2-(4-chlorobenzyl)-6-(2-((2,2-difluoroethyl)amino)pyrimidin-5-yl)pyridazin-3(2H)-one]"
4,< 10,"O=c1ccc(-c2cnc(OCC(F)(F)F)nc2)nn1Cc1cccc(F)c1F [Compound 38, 2-(2,3-difluorobenzyl)-6-(2-(2,2,2-trifluoroethoxy)pyrimidin-5-yl)pyridazin-3(2H)-one]"
5,< 10,"O=c1ccc(-c2cnc(OCC(F)(F)F)nc2)nn1Cc1cc(F)ccc1F [Compound 40, 2-(2,5-difluorobenzyl)-6-(2-(2,2,2-trifluoroethoxy)pyrimidin-5-yl)pyridazin-3(2H)-one]"
6,< 10,"O=c1ccc(-c2cnc(OCC(F)(F)F)nc2)nn1Cc1ccc(O)c(Cl)c1 [Compound 7, 2-(3-chloro-4-hydroxybenzyl)-6-(2-(2,2,2-trifluoroethoxy)pyrimidin-5-yl)pyridazin-3(2H)-one]"
7,< 10,"O=c1ccc(-c2cnc(N3CC(F)(F)C3)nc2)nn1Cc1ccc(Cl)cc1 [Compound 44, 2-(4-chlorobenzyl)-6-(2-(3,3-difluoroazetidin-1-yl)pyrimidin-5-yl)pyridazin-3(2H)-one]"
8,< 10,"O=c1ccc(-c2cnc(NCCOC(F)F)nc2)nn1Cc1ccc(Cl)cc1 [Compound 46, 2-(4-chlorobenzyl)-6-(2-((2-(difluoromethoxy)ethyl)amino)pyrimidin-5-yl)pyridazin-3(2H)-one]"
9,< 10,"O=c1ccc(-c2cnc(OCC3COC3)nc2)nn1Cc1ccc(F)cc1F [Compound 25, 2-(2,4-difluorobenzyl)-6-(2-(oxetan-3-ylmethoxy)pyrimidin-5-yl)pyridazin-3(2H)-one]"
10,< 10,"O=c1ccc(-c2ccc(OCC(F)(F)F)cc2)nn1Cc1ccc(Cl)cc1 [Compound 101, 2-(4-chlorobenzyl)-6-(4-(2,2,2-trifluoroethoxy)phenyl)pyridazin-3(2H)-one]"
11,< 10,"O=c1ccc(-c2ccc(OCC(F)(F)F)nc2)nn1Cc1ccc(Cl)cc1 [Compound 11, 2-(4-chlorobenzyl)-6-(6-(2,2,2-trifluoroethoxy)pyridin-3-yl)pyridazin-3(2H)-one]"
12,< 10,"O=c1ccc(-c2cnc(NCC(F)(F)F)nc2)nn1Cc1ccc(Cl)cc1 [Compound 6, 2-(4-chlorobenzyl)-6-(2-((2,2,2-trifluoroethyl)amino)pyrimidin-5-yl)pyridazin-3(2H)-one]"
